Several values for one entry are separate records, joined by “and”; a condition that tells them apart may be missing. Identical values can stand only once.
System: human bone marrow MSC
Assay: Microarray gene expression analysis of MSC (Illumina Human HT12 Expression BeadChip)
Type: cell-based
Conditions: Tre(+) 250 μg/mL, 24 h
Protocol: Human bone marrow MSC were expanded and seeded into six (6) T225 flasks using standard growth medium (Table 1). At 95-99% confluency, cells were thoroughly washed with PBS. Three (3) flasks were replenished with basal media containing 250 μg/mL treprostinil, (+)Tre, and the remaining three (3) flasks were replenished with unsupplemented basal media, (−)Tre. After 24 hours of culture, representative images were captured from (+) Tre and (−) Tre cultures. Conditioned media was collected from each replicate, divided into two samples of appropriate volumes, and analyzed separately for: 1) secreted proteins (Myriad RBM InflammationMAP® 1.0) and 2) exosome RNA content. Cells were lysed directly from culture flasks, processed for total RNA isolation, and analyzed for gene expression by microarray (Illumina Human HT12 Expression BeadChip). Microarray gene expression analysis was also performed on MSC from cultures without (−) or with (+) 250 ug/mL treprostinil. Three (3) biological replicates from each condition were analyzed. Of the 77,612 sequences identified among all replicates, only 24,273 were detected above the arbitrary background of 50 counts. 2,984 RNA sequences were unique to Tre(−) cultures, while 1,781 RNA sequences were unique to Tre(+) cultures (panel A). Genes detected in both conditions were further analyzed for differential expression (panel). […] Genes that are expressed only in Tre(−) cultures (that is to say, completely turned off in the Tre(+) cultures) are shown in Table 5.

`CCCCC[C@H](O)CC[C@@H]1[C@H]2Cc3cccc(OCC(=O)O)c3C[C@H]2C[C@H]1O` [treprostinil] was tested, and the “ASPM (NM_018136) expression, Rep 1-3” value was 20 counts and 27 counts and 30 counts, the “ATF3 (NM_001030287) expression, Rep 1-3” value was 1001 counts and 1579 counts and 1041 counts and the “ATP6V0D2 (NM_152565) expression, Rep 1-3” value was 547 counts and 893 counts and 499 counts. For the same compound, the “BMP6 (NM_001718) expression, Rep 1-3” value was 1210 counts and 1581 counts and 1181 counts, the “C11orf96 (NM_001145033) expression, Rep 1-3” value was 2050 counts and 2381 counts and 1885 counts and the “C13orf33 (NM_032849) expression, Rep 1-3” value was 17304 counts and 24329 counts and 16255 counts. For the same compound, the “CALD1 (NM_033140) expression, Rep 1-3” value was 0 counts, the “CD55 (NM_000574) expression, Rep 1-3” value was 7472 counts and 9108 counts and 6555 counts and the “CD55 (NM_001114752) expression, Rep 1-3” value was 2497 counts and 3119 counts and 2372 counts. The “COL6A3 (NM_004369) expression, Rep 1-3” value was 5033 counts and 4570 counts and 4303 counts, the “CPA4 (NM_016352) expression, Rep 1-3” value was 51 counts and 62 counts and 45 counts and the “CXCL12 (NM_199168) expression, Rep 1-3” value was 853 counts and 627 counts and 534 counts. The “DDAH1 (NM_001134445) expression, Rep 1-3” value was 136 counts and 155 counts and 107 counts, the “DKFZp547J0510 (CDNA FLJ42650 fis, clone BRACE3027478) expression, Rep 1-3” value was 183 counts and 135 counts and 125 counts and the “DUSP1 (NM_004417) expression, Rep 1-3” value was 825 counts and 1489 counts and 963 counts. The “FAM84A (NM_145175) expression, Rep 1-3” value was 63 counts and 40 counts and 32 counts, the “GDF5 (NM_000557) expression, Rep 1-3” value was 83 counts and 64 counts and 65 counts and the “GDF15 (NM_004864) expression, Rep 1-3” value was 11450 counts and 18978 counts and 10088 counts. The “GDNF (NM_000514) expression, Rep 1-3” value was 689 counts and 845 counts and 824 counts, the “GPRC5A (NM_003979) expression, Rep 1-3” value was 4151 counts and 5981 counts and 3920 counts and the “HAS1 (NM_001523) expression, Rep 1-3, second entry” value was 1355 counts and 730 counts and 789 counts. For the same compound, the “HSD11B1 (NM_005525) expression, Rep 1-3” value was 822 counts and 966 counts and 758 counts, the “IDH1 (NM_005896) expression, Rep 1-3” value was 1920 counts and 2406 counts and 1792 counts and the “IER3 (NM_003897) expression, Rep 1-3” value was 2769 counts and 3595 counts and 2558 counts. For the same compound, the “IGFBP1 (NM_000596) expression, Rep 1-3” value was 5468 counts and 8123 counts and 5321 counts, the “IL6 (NM_000600) expression, Rep 1-3” value was 6490 counts and 8445 counts and 5640 counts and the “IL11 (NM_000641) expression, Rep 1-3” value was 851 counts and 1237 counts and 700 counts. For the same compound, the “ISLR (NM_005545) expression, Rep 1-3” value was 612 counts and 543 counts and 490 counts, the “KTN1 (NM_001079522) expression, Rep 1-3” value was 531 counts and 612 counts and 596 counts and the “KYNU (NM_003937) expression, Rep 1-3” value was 867 counts and 922 counts and 797 counts. For the same compound, the “LIPG (NM_006033) expression, Rep 1-3” value was 1552 counts and 1946 counts and 1607 counts, the “MEST (NM_177525) expression, Rep 1-3” value was 367 counts and 268 counts and 258 counts and the “METTL7A (NM_014033) expression, Rep 1-3” value was 146 counts and 95 counts and 85 counts. For the same compound, the “MYLK (NM_053025) expression, Rep 1-3” value was 0 counts, the “NAP1L3 (NM_004538) expression, Rep 1-3” value was 68 counts and 35 counts and 42 counts and the “NGFR (NM_002507) expression, Rep 1-3” value was 1217 counts and 1818 counts and 1074 counts. The “NR4A2 (NM_006186) expression, Rep 1-3” value was 635 counts and 810 counts and 592 counts, the “OLFML1 (NM_198474) expression, Rep 1-3 (Table 4)” value was 177 counts and 128 counts and 114 counts and the “PALLD (NM_001166110) expression, Rep 1-3” value was 1158 counts and 885 counts and 1055 counts. For the same compound, the “PAQR5 (NM_017705) expression, Rep 1-3” value was 703 counts and 745 counts and 664 counts, the “PDE4B (NM_001037339) expression, Rep 1-3” value was 1160 counts and 1371 counts and 1056 counts and the “PDE4D (NM_001197221) expression, Rep 1-3” value was 1130 counts and 1170 counts and 1071 counts. The “PDE4D (NM_001197222) expression, Rep 1-3” value was 1417 counts and 2044 counts and 1570 counts, the “PDE5A (NM_033430) expression, Rep 1-3” value was 174 counts and 286 counts and 206 counts and the “PDK4 (NM_002612) expression, Rep 1-3” value was 1296 counts and 1726 counts and 1173 counts. For the same compound, the “PITPNC1 (NM_181671) expression, Rep 1-3” value was 702 counts and 1007 counts and 764 counts, the “PLIN2 (NM_001122) expression, Rep 1-3” value was 82301 counts and 124225 counts and 72254 counts and the “PLOD2 (NM_000935) expression, Rep 1-3” value was 1169 counts and 1679 counts and 925 counts. For the same compound, the “PRELP (NM_002725) expression, Rep 1-3” value was 159 counts and 104 counts and 80 counts, the “PRKAG2 (NM_024429) expression, Rep 1-3” value was 7233 counts and 8152 counts and 6080 counts and the “PTP4A1 (NM_003463) expression, Rep 1-3” value was 849 counts and 696 counts and 510 counts. The “RCAN1 (NM_203418) expression, Rep 1-3” value was 7766 counts and 11997 counts and 6962 counts, the “RCAN2 (NM_001251974) expression, Rep 1-3” value was 129 counts and 109 counts and 76 counts and the “RND3 (NM_005168) expression, Rep 1-3” value was 48372 counts and 65016 counts and 41881 counts. The “S100A4 (NM_002961) expression, Rep 1-3” value was 149 counts and 114 counts and 113 counts, the “SAT1 (transcript variant 2, non-coding RNA) expression, Rep 1-3” value was 1141 counts and 1529 counts and 954 counts and the “SCG2 (NM_003469) expression, Rep 1-3” value was 1014 counts and 1187 counts and 1069 counts. For the same compound, the “SEC31A (NM_001077207) expression, Rep 1-3” value was 737 counts and 887 counts and 573 counts, the “SIK1 (NM_173354) expression, Rep 1-3” value was 1144 counts and 1320 counts and 1086 counts and the “SLC2A12 (NM_145176) expression, Rep 1-3” value was 110 counts and 114 counts and 92 counts. For the same compound, the “SLC3A2 (NM_001013251) expression, Rep 1-3” value was 31831 counts and 39703 counts and 29042 counts and the “SLC6A15 (NM_182767) expression, Rep 1-3” value was 1201 counts and 1568 counts and 1062 counts.
